Reference: PMC4979877 (2016)

Tested on: non-cognate duplex (DNA, duplex) GGGTGAGGAGGAGGGAGATCGGTC/TGACCGATCTCCCTCCTCCTCACCC
Experiment: fluorescence titration
Conditions: 0.025 M Tris-HCl, pH 7.5, room temperature; probe 12 µM; fluorescence only 1.5-fold up

Question: How did the binding turn out when `CN(C)CCCNC(=O)CCNC(=O)c1cc(NC(=O)c2cc(NC(=O)c3cc(NC(=O)c4cc(NC(=O)C(N)CCNC(=O)c5cc(NC(=O)c6cc(NC(=O)c7cc(NC(=O)c8nc(NC(=O)CCCNC(=O)CCc9cn(-c%10cc%11ccc(O)cc%11oc%10=O)nn9)cn8C)cn7C)cn6C)cn5C)cn4C)cn3C)cn2C)cn1C` (stereo not shown) was run?
Answer: weak
